# Values quoted from earlier work in patent US9346789B2, “Combinations of AKT inhibitor compounds and abiraterone, and methods of use” (Genentech, Inc., priority 2011, dated 2016).
# Target: T1, topoisomerase I (Homo sapiens, UniProt P11387)
# T1 sequence (P11387 1-765): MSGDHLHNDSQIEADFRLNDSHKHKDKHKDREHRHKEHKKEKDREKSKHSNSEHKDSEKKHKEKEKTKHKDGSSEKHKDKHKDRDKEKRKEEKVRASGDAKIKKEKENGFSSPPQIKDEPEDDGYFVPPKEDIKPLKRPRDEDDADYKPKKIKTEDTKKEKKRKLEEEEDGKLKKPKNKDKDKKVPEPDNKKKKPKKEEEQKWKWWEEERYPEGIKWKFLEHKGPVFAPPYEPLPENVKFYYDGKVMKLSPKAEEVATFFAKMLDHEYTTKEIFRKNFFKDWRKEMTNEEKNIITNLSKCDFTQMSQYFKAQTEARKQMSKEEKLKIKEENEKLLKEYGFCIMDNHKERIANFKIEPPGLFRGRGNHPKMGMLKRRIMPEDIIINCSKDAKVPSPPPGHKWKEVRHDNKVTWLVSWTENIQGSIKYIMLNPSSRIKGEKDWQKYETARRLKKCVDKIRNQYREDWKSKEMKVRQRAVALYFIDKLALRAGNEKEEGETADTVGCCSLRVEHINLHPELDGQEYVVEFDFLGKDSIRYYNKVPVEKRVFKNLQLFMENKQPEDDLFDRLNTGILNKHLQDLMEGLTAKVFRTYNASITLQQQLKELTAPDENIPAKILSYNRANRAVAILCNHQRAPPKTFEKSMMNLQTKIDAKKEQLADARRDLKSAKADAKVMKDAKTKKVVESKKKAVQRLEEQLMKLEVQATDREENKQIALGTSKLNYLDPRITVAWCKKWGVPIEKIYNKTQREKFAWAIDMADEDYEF
# Conditions: active metabolite versus irinotecan itself
smiles,measurement,value
"CCc1c2c(nc3ccc(O)cc13)-c1cc3c(c(=O)n1C2)COC(=O)[C@]3(O)CC [SN-38, 7-ethyl-10-hydroxy-camptothecin]",activity relative to irinotecan,200 times
